Article PMC9221018, “Sulfonamide-Derived Dithiocarbamate Gold(I) Complexes Induce the Apoptosis of Colon Cancer Cells by the Activation of Caspase 3 and Redox Imbalance” (Biomedicines, 2022)

Columns and labels:
[1] = n-octanol-water distribution coefficient, shake-flask method; type: physicochemical; conditions: n-octanol/buffered saline pH 7.4, shake-flask
Experimental: The n-octanol−water coefficients of the complexes were determined using a shake-flask method, as reported previously. Briefly, 100 mL buffered-saline (0.15 M NaCl, 10 mM phosphate [PO4^3−] buffer, pH 7.4) and 100 mL n-octanol were shaken for 72 h. The addition of 1 mg of the complexes followed by the centrifugation and separation of both phases gave two solutions, which were analysed by UV absorbance spectroscopy to determine their concentration in each phase. The corresponding value of log P was defined as log{[compound(organic)]/[compound(aqueous)]}.

[2] = biological target: T1, recombinant human enzyme TrxR1 (Homo sapiens, UniProt Q16881); test: Thioredoxin reductase 1 (TrxR1) activity assay (DTNB); type: biochemical; conditions: recombinant TrxR1, complexes at their IC50 values (1 1.14 μM, 8 7.22 μM), 5 min incubation
T1 construct: purchased Sigma SRP 6081
T1 sequence (Q16881 161-647 limits assumed): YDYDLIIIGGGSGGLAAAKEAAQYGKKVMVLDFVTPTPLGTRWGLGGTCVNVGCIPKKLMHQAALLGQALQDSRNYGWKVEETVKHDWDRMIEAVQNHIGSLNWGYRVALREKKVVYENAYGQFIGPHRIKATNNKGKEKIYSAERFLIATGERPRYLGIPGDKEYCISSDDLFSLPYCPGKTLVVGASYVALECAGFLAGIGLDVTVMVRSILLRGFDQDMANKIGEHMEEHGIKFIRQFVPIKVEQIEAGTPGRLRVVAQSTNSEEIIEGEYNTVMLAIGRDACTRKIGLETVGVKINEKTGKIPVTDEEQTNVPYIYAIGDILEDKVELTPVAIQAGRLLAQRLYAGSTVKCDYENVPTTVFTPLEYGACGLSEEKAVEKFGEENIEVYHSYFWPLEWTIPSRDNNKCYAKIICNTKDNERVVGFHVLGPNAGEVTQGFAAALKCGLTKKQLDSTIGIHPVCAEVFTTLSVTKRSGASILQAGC
Experimental: The in vitro interaction of metal complexes with the enzyme thioredoxin reductase was analyzed using a thioredoxin reductase assay kit (Sigma, CS0170, St Louis, MO, USA). The procedure instructions in the kit were followed, though the rat liver thioredoxin reductase was replaced with recombinant human enzyme TrxR1 (SRP 6081, Sigma, St Louis, MO, USA). The reaction was initiated by adding DTNB (100 mM), and conversion to TNB^− was monitored at 412 nm every 30 s for 22 min using a SPECTROstar Nano (BMG Labtech, Ortenberg, Germany) multiplate reader. The results were expressed as a percentage of the TrxR activity with respect to the control.

p53 = test: Determination of p53 protein by flow cytometry; type: cell-based, human; conditions: Caco-2; complex 1 1.14 µM 48 h, complex 8 7.22 µM 72 h
Experimental: Caco-2 cells were seeded in a 75 cm^2 flask at a density of 1 × 10^4 cells/cm^2; 24 h later, they were exposed to the drug panel for 48 or 72 h. Then, the cells were collected and processed as previously described. Finally, 50 µL of every sample was incubated with 5 µL anti-active caspase-3 (BD Pharmigen, San Diego, CA, USA, Clone C92-605) and 5 µL p53 antibody (Miltenyi, Auburn, CA, USA, Clone REA609). The fluorescence was measured by flow cytometry using a Beckman Coulter Gallios (Brea, CA, USA) equipped with a blue solid diode laser (488 nm) and a red solid diode laser (635 nm). For the caspase-3 determination, the excitation wavelength was set at 488 nm and the emission was set at 525 nm; for the p53 analysis, the excitation was set at 635 nm and the emission was set at 660 nm.

[3] = test system: Human epithelial fibroblast cells (NHDF-Ad); test: MTT viability assay in human epithelial fibroblasts; type: cell-based; conditions: complexes at their IC50 (1 1.14 μM, 3 1.7 μM, 8 7.22 μM, 9 8.56 μM), 72 h
Experimental: The human Caco-2 cell line (TC7 clone) was kindly provided by Dr. Edith Brot-Laroche (Université Pierre et Marie Curie-Paris 6, UMR S 872, Les Cordeliers, France). Human epithelial fibroblast cells (NHDF-Ad, Lonza®®, Porriño, Spain) were kindly provided by Dr. Gracia Mendoza (Aragon Health Research Institute, IIS Aragón, Spain). Caco-2 cells (passages 40–70) and fibroblasts (passages 10–30) were maintained in a humidified atmosphere of 5% CO2 at 37 °C and grown in medium following the method used by Quero et al.. The Caco-2 cells were sub-cultured in 25 cm^2 plastic flasks at a density of 1.2 × 10^4 cells/cm^2, while the fibroblasts were sub-cultured on 75 cm^2 plastic flasks at a density of 1 × 10^4 cells/cm^2. The culture medium was replaced every 2 days.
The gold complexes were diluted in dimethyl sulfoxide (DMSO) as a 10 mM stock solution, and then diluted in cell culture medium at the desired concentrations.
For the cytotoxicity screening assays, Caco-2 cells were seeded in 96-well plates at a density of 4 × 10^3 cells/well. The culture medium was replaced with medium containing the drug panel 24 h post-seeding, and the cells were incubated for 24, 48 and 72 h. […] In differentiated Caco-2 and fibroblasts, culture medium containing metal gold complexes was added 15 days post-seeding, and the cells were incubated for 72 h. The antiproliferative effect was measured using an MTT assay, as previously described by Mármol et al.. The absorbance at 540/620 nm was measured using a SPECTROstar Nano (BMG Labtech, Ortenberg, Germany). In order to determine the selectivity index (SI), the IC50 value of the differentiated Caco-2 cells was divided by IC50 value in undifferentiated Caco-2, obtaining the ratio of the normal/cancerous cells’ toxicity.

Caco-2 cells = test: Apoptosis measurement, annexin V-FITC/PI flow cytometry; type: cell-based, human; conditions: complex 1 1.14 µM 48 h, complex 8 7.22 µM 72 h
Experimental: Caco-2 cells were seeded in 75 cm^2 flasks at a density of 1 × 10^4 cells/cm^2, then exposed to the drug panel for 48 or 72 h depending on the compound tested, and them stained with annexin V-FITC and sodium iodide propidio according to the manufacturer’s instructions. The cells were then transferred to flow cytometry tubes and washed twice with phosphate-buffered saline (PBS); they were then resuspended in 100 µL annexing V binding buffer (100 mM Hepes/NaOH pH 7.4, […], 2.5 mM CaCl2). In total, 5 µL annexin V-FITC and 5 µL propidium iodide (PI) were added to the tube. After 15 min of incubation at room temperature protected from light, 400 µL annexin binding buffer was added to each sample, and the signal intensity was analyzed within 1 h with Beckman Coulter Gallios (Brea, CA, USA). The data were analyzed with BD FACSDivaTM [59].

| Compound | Log P7.4 [1] | decrease in TrxR activity [2] | cells with active p53 (p53) | decrease of cell viability [3] | induction of apoptosis (annexin V/PI) (Caco-2 cells) |
| --- | --- | --- | --- | --- | --- |
| O=S(=O)(NC(=S)[S][Au][PH](c1ccccc1)(c1ccccc1)c1ccccc1)c1ccccc1 [Complex 1, [Au(S2CNHSO2C6H5)(PPh3)]] | 0.75 | around 80% | significant increase in cells with active p53 | did not compromise the viability | capable of inducing apoptosis |
| [Au(S2CNHSO2-p-Me-C6H4)(IMePropargyl)] [Complex 8] | −0.13 | around 80% | significant increase in cells with active p53 | did not compromise the viability | capable of inducing apoptosis |
